Laboratory results published in US20030032003A1, “IN VIVO SELECTION” (priority 2000, published 2003).
Read-outs that look alike come from different tables or passages of the source. Marks after values point to notes of the source that are not given here.

Key:
[1] = tested on: embryos of C57BL6/J Hprt −/− females mated with wildtype Hprt +/o males; type: in vivo; conditions: for Offspring ♀ (Hprt +/−, sensitive) / Offspring ♂ (Hprt −/o, resistant): three i.p. injections of 20 mg/kg in 24 hrs intervals during gestation
Procedure: The animals were housed in standard plastic microisolator cages with wood-chip bedding. The room was maintained at 22° C. and 70% humidity and the light cycle was 12 hours. Water and mouse diet No:5015 (PMI Feeds, Inc., St. Louis, Mo.) was supplied ad libitum. All housing and treatment protocols were reviewed and approved by an institutional Animal Care Committee.
Hprt −/− females (5-8 weeks old) were mated with wildtype males and the presence of vaginal plugs was examined daily. The day when a plug appeared was considered to be day 1 of pregnancy and the male was separated. The pregnant dams were treated with three i.p. injections of 6-thioguanine (20 mg/kg) or in control matings with saline starting […] in 24 hrs intervals. Pregnant mice were examined daily until term. The gender of offsprings was first determined 24 days after delivery and confirmed at the time of weaning (4 weeks of age).
An experiment was designed to investigate whether one could select against Hprt wildtype embryos with 6-thioguanine. Female mice C57BL6/J Hprt −/− were mated with wildtype Hprt +/o males. Since the Hprt gene is located on the X chromosome the resulting male offspring will be Hprt −/o and therefore resistant to 6-thioguanine (6TG). On the other hand, female offspring will be Hprt +/− and thus sensitive to 6TG. 6TG (Sigma) was injected i.p. in three subsequential doses (20 mg/kg each) in 24 hrs intervals starting on the third day of gestation. Mice were screened two times daily for possible toxic effects.

[2] = tested on: Hprt+/+ mice, recipients of Hprt−/− bone marrow and non-recipient controls
Procedure: Recipient Hprt+/+ female mice were irradiated with 950 cGy of X-rays 24 hours before transplantation.
Briefly, bone marrow was flushed from femora and tibiae with 2 ml of Dulbecco's modified Eagle medium (D-MEM) supplemented with 10% of FBS and 100 units/ml penicillin, 100 mg/ml streptomycin. The isolated cells from the donor mouse were washed with PBS and injected into the tail vein of female Hprt +/+ recipients.
6TG (2-amino-6-mercaptopurine Sigma) was suspended in sterile PBS with a final concentration of 0.5 mg/ml prior to each i.p. application. All mice, recipients of bone marrow transplant and non-recipient controls, were treated with the same 6TG dose regimen. All mice were treated one hour after transplantation of recipients with an initial dose of 6TG at 10 mg/kg body weight. After 7 days the animals were treated with 4 doses of 5 mg/kg b.w. in 48 hrs intervals and followed with 5 days of recovery period.
This regimen was repeated 2 times with doses 5 mg/kg and 3 times with doses of 10 mg/kg with 5 days recovery periods in between treatments. Another control group of transplanted animals was treated with the same amount of sterile PBS.

Hprt +/+ mice = assay: Histopathological analysis of mouse tissues after 6TG
[3] = Hprt +/+, 6TG lethal 50-720 mg/kg, 7 mice
[4] = Hprt +/+, 6TG sublethal 25 mg/kg, 2 mice

Nc1nc(S)c2[nH]cnc2n1 [6TG, 2-amino-6-merkaptopurine]
Offspring ♀ (Hprt +/−, sensitive) ([1]; Dam 1T): 0
Offspring ♂ (Hprt −/o, resistant) ([1]; Dam 1T): 4
Offspring ♀ (Hprt +/−, sensitive) ([1]; Dam 2T): 0
Offspring ♂ (Hprt −/o, resistant) ([1]; Dam 2T): 2
toxicity to the dams ([1]; Hprt −/− dams, three doses 20 mg/kg i.p.): did not cause any apparent toxic symptoms or discomfort to the dams
male offspring delivered ([1]; two 6TG treated dams together): 6
toxic effect of 6TG ([2]; 6TG treated bone marrow (BM) recipients): did not show any apparent toxic effect
body weight decrease ([2]; 6TG treated bone marrow recipients, first week after transplantation): about 10%
Body weight ([2]; Bone marrow recipients +6TG, week 1): 91
Body weight ([2]; Bone marrow recipients +6TG, week 2): 89
Body weight ([2]; Bone marrow recipients +6TG, week 3): 90
Body weight ([2]; Bone marrow recipients +6TG, week 4): 90
Body weight ([2]; Bone marrow recipients +6TG, week 5): 88
Body weight ([2]; Bone marrow recipients +6TG, week 6): 93
Body weight ([2]; Controls (non-recipients) +6TG, week 1): 99
Body weight ([2]; Controls (non-recipients) +6TG, week 2): 100
Body weight ([2]; Controls (non-recipients) +6TG, week 3, these mice died): 86*
Body weight ([2]; Controls (non-recipients) +6TG, week 4, these mice died): 79*
loss of body weight ([2]; non-recipient controls, during 3 weeks of 6TG treatment): 25%
Bone marrow Depletion, severity grade (Hprt +/+ mice; Hprt +/+, 25 mg/kg i.p.): 3.5 ± 0.5
Bone marrow Depletion, severity grade (Hprt +/+ mice; Hprt +/+, 50 mg/kg i.p.): 4
Bone marrow Necrosis, severity grade (Hprt +/+ mice; Hprt +/+, 50 mg/kg i.p.): 3
Gastric epithelium Atrophy, severity grade (Hprt +/+ mice; Hprt +/+, 50 mg/kg i.p.): 2
Gastric epithelium Necrosis, severity grade (Hprt +/+ mice; Hprt +/+, 50 mg/kg i.p.): 1
Intestinal epithelium Atrophy, severity grade (Hprt +/+ mice; Hprt +/+, 50 mg/kg i.p.): 2
Intestinal epithelium Necrosis, severity grade (Hprt +/+ mice; Hprt +/+, 50 mg/kg i.p.): 1
Liver Atrophy necrosis, severity grade (Hprt +/+ mice; Hprt +/+, 50 mg/kg i.p.): 3
Spleen Lymphoid depletion, severity grade (Hprt +/+ mice; Hprt +/+, 50 mg/kg i.p.): 1
Bone marrow Depletion, severity grade (Hprt +/+ mice; Hprt +/+, 100 mg/kg i.p.): 4
Bone marrow Necrosis, severity grade (Hprt +/+ mice; Hprt +/+, 100 mg/kg i.p.): 3
Gastric epithelium Atrophy, severity grade (Hprt +/+ mice; Hprt +/+, 100 mg/kg i.p.): 3
Gastric epithelium Necrosis, severity grade (Hprt +/+ mice; Hprt +/+, 100 mg/kg i.p.): 3
Intestinal epithelium Atrophy, severity grade (Hprt +/+ mice; Hprt +/+, 100 mg/kg i.p.): 3
Intestinal epithelium Necrosis, severity grade (Hprt +/+ mice; Hprt +/+, 100 mg/kg i.p.): 3
Liver Atrophy necrosis, severity grade (Hprt +/+ mice; Hprt +/+, 100 mg/kg i.p.): 2
Spleen Lymphoid depletion, severity grade (Hprt +/+ mice; Hprt +/+, 100 mg/kg i.p.): 1
Spleen Necrosis, severity grade (Hprt +/+ mice; Hprt +/+, 100 mg/kg i.p.): 2
Bone marrow Depletion, severity grade (Hprt +/+ mice; Hprt +/+, 150 mg/kg i.p.): 4
Bone marrow Necrosis, severity grade (Hprt +/+ mice; Hprt +/+, 150 mg/kg i.p.): 4
Gastric epithelium Atrophy, severity grade (Hprt +/+ mice; Hprt +/+, 150 mg/kg i.p.): 1
Gastric epithelium Necrosis, severity grade (Hprt +/+ mice; Hprt +/+, 150 mg/kg i.p.): 1
Intestinal epithelium Atrophy, severity grade (Hprt +/+ mice; Hprt +/+, 150 mg/kg i.p.): 1
Intestinal epithelium Necrosis, severity grade (Hprt +/+ mice; Hprt +/+, 150 mg/kg i.p.): 1
Liver Atrophy necrosis, severity grade (Hprt +/+ mice; Hprt +/+, 150 mg/kg i.p.): 2
Liver Centrilobular hypertrophy, severity grade (Hprt +/+ mice; Hprt +/+, 150 mg/kg i.p.): 2
Spleen Lymphoid depletion, severity grade (Hprt +/+ mice; Hprt +/+, 150 mg/kg i.p.): 2
Spleen Necrosis, severity grade (Hprt +/+ mice; Hprt +/+, 150 mg/kg i.p.): 2
Bone marrow Depletion, severity grade (Hprt +/+ mice; Hprt +/+, 225 mg/kg i.p.): 3
Bone marrow Necrosis, severity grade (Hprt +/+ mice; Hprt +/+, 225 mg/kg i.p.): 3
Gastric epithelium Atrophy, severity grade (Hprt +/+ mice; Hprt +/+, 225 mg/kg i.p.): 1
Gastric epithelium Necrosis, severity grade (Hprt +/+ mice; Hprt +/+, 225 mg/kg i.p.): 1
Intestinal epithelium Atrophy, severity grade (Hprt +/+ mice; Hprt +/+, 225 mg/kg i.p.): 1
Intestinal epithelium Necrosis, severity grade (Hprt +/+ mice; Hprt +/+, 225 mg/kg i.p.): 1
Liver Atrophy necrosis, severity grade (Hprt +/+ mice; Hprt +/+, 225 mg/kg i.p.): 2
Liver Centrilobular hypertrophy, severity grade (Hprt +/+ mice; Hprt +/+, 225 mg/kg i.p.): 1
Liver Fatty change, severity grade (Hprt +/+ mice; Hprt +/+, 225 mg/kg i.p.): 1
Spleen Lymphoid depletion, severity grade (Hprt +/+ mice; Hprt +/+, 225 mg/kg i.p.): 3
Spleen Necrosis, severity grade (Hprt +/+ mice; Hprt +/+, 225 mg/kg i.p.): 4
Bone marrow Depletion, severity grade (Hprt +/+ mice; Hprt +/+, 338 mg/kg i.p.): 4
Bone marrow Necrosis, severity grade (Hprt +/+ mice; Hprt +/+, 338 mg/kg i.p.): 3
Gastric epithelium Atrophy, severity grade (Hprt +/+ mice; Hprt +/+, 338 mg/kg i.p.): 3
Gastric epithelium Necrosis, severity grade (Hprt +/+ mice; Hprt +/+, 338 mg/kg i.p.): 3
Intestinal epithelium Atrophy, severity grade (Hprt +/+ mice; Hprt +/+, 338 mg/kg i.p.): 3
Intestinal epithelium Necrosis, severity grade (Hprt +/+ mice; Hprt +/+, 338 mg/kg i.p.): 3
Liver Atrophy necrosis, severity grade (Hprt +/+ mice; Hprt +/+, 338 mg/kg i.p.): 1
Liver Centrilobular hypertrophy, severity grade (Hprt +/+ mice; Hprt +/+, 338 mg/kg i.p.): 2
Liver Fatty change, severity grade (Hprt +/+ mice; Hprt +/+, 338 mg/kg i.p.): 2
Spleen Lymphoid depletion, severity grade (Hprt +/+ mice; Hprt +/+, 338 mg/kg i.p.): 2
Spleen Necrosis, severity grade (Hprt +/+ mice; Hprt +/+, 338 mg/kg i.p.): 1
Bone marrow Depletion, severity grade (Hprt +/+ mice; Hprt +/+, 507 mg/kg i.p.): 3
Bone marrow Necrosis, severity grade (Hprt +/+ mice; Hprt +/+, 507 mg/kg i.p.): 4
Gastric epithelium Atrophy, severity grade (Hprt +/+ mice; Hprt +/+, 507 mg/kg i.p.): 1
Gastric epithelium Necrosis, severity grade (Hprt +/+ mice; Hprt +/+, 507 mg/kg i.p.): 1
Intestinal epithelium Atrophy, severity grade (Hprt +/+ mice; Hprt +/+, 507 mg/kg i.p.): 1
Intestinal epithelium Necrosis, severity grade (Hprt +/+ mice; Hprt +/+, 507 mg/kg i.p.): 1
Liver Atrophy necrosis, severity grade (Hprt +/+ mice; Hprt +/+, 507 mg/kg i.p.): 1
Liver Centrilobular hypertrophy, severity grade (Hprt +/+ mice; Hprt +/+, 507 mg/kg i.p.): 1
Liver Fatty change, severity grade (Hprt +/+ mice; Hprt +/+, 507 mg/kg i.p.): 2
Spleen Lymphoid depletion, severity grade (Hprt +/+ mice; Hprt +/+, 507 mg/kg i.p.): 1
Spleen Necrosis, severity grade (Hprt +/+ mice; Hprt +/+, 507 mg/kg i.p.): 2
Bone marrow Depletion, severity grade (Hprt +/+ mice; Hprt +/+, 720 mg/kg i.p.): 4
Bone marrow Necrosis, severity grade (Hprt +/+ mice; Hprt +/+, 720 mg/kg i.p.): 4
Gastric epithelium Atrophy, severity grade (Hprt +/+ mice; Hprt +/+, 720 mg/kg i.p.): 1
Gastric epithelium Necrosis, severity grade (Hprt +/+ mice; Hprt +/+, 720 mg/kg i.p.): 1
Intestinal epithelium Atrophy, severity grade (Hprt +/+ mice; Hprt +/+, 720 mg/kg i.p.): 1
Intestinal epithelium Necrosis, severity grade (Hprt +/+ mice; Hprt +/+, 720 mg/kg i.p.): 1
Liver Atrophy necrosis, severity grade (Hprt +/+ mice; Hprt +/+, 720 mg/kg i.p.): 2
Liver Centrilobular hypertrophy, severity grade (Hprt +/+ mice; Hprt +/+, 720 mg/kg i.p.): 1
Spleen Lymphoid depletion, severity grade (Hprt +/+ mice; Hprt +/+, 720 mg/kg i.p.): 3
Spleen Necrosis, severity grade (Hprt +/+ mice; Hprt +/+, 720 mg/kg i.p.): 3
Bone marrow Depletion, average of lesion severity grade (Hprt +/+ mice; [3]): 3.7 ± 0.5
Bone marrow Necrosis, average of lesion severity grade (Hprt +/+ mice; [3]): 3.4 ± 0.5
Gastric epithelium Atrophy, average of lesion severity grade (Hprt +/+ mice; [3]): 1.7 ± 0.9
Gastric epithelium Necrosis, average of lesion severity grade (Hprt +/+ mice; [3]): 1.6 ± 0.9
Intestinal epithelium Atrophy, average of lesion severity grade (Hprt +/+ mice; [3]): 1.7 ± 0.9
Intestinal epithelium Necrosis, average of lesion severity grade (Hprt +/+ mice; [3]): 1.6 ± 1.0
Liver Atrophy necrosis, average of lesion severity grade (Hprt +/+ mice; [3]): 1.9 ± 0.7
Liver Centrilobular hypertrophy, average of lesion severity grade (Hprt +/+ mice; [3]): 1.0 ± 0.8
Liver Fatty change, average of lesion severity grade (Hprt +/+ mice; [3]): 0.7 ± 0.9
Spleen Lymphoid depletion, average of lesion severity grade (Hprt +/+ mice; [3]): 1.9 ± 0.9
Spleen Necrosis, average of lesion severity grade (Hprt +/+ mice; [3]): 2.0 ± 1.3
Bone marrow Depletion, average of lesion severity grade (Hprt +/+ mice; [4]): 3.5 ± 0.5
Bone marrow Necrosis, average of lesion severity grade (Hprt +/+ mice; [4]): 0.5 ± 0.5
Liver Atrophy necrosis, average of lesion severity grade (Hprt +/+ mice; [4]): 2.5 ± 0.5
starting dose of liver lesions (necrosis and atrophy of hepatocytes) (Hprt +/+ mice; Hprt wildtype mice): 25 mg/kg
lowest dose with liver centrilobular hypertrophy (Hprt +/+ mice; wildtype mice): 150 mg/kg
lowest dose with liver fatty change (Hprt +/+ mice; wildtype mice): 225 mg/kg
starting dose of atrophy and/or necrosis of gastrointestinal epithelium (Hprt +/+ mice; wildtype mice): 50 mg/kg
